18 molecules from ChEMBL document CHEMBL1765000, “Synthesis and biological evaluation of 1-substituted-3(5)-(6-methylpyridin-2-yl)-4-(quinolin-6-yl)pyrazoles as transforming growth factor-β type 1 receptor kinase inhibitors” (Bioorg Med Chem, 2011) can be followed below.

Each structure is given as a SMILES string.

In assay [1] the target is Mitogen-activated protein kinase 14 (Homo sapiens, UniProt Q16539). The experiment in a line: Inhibition of human recombinant p38alpha expressed in Escherichia coli using ATF2 as a substrate by radioisotopic protein kinase assay.
Sequence of Mitogen-activated protein kinase 14 (Q16539 whole entry): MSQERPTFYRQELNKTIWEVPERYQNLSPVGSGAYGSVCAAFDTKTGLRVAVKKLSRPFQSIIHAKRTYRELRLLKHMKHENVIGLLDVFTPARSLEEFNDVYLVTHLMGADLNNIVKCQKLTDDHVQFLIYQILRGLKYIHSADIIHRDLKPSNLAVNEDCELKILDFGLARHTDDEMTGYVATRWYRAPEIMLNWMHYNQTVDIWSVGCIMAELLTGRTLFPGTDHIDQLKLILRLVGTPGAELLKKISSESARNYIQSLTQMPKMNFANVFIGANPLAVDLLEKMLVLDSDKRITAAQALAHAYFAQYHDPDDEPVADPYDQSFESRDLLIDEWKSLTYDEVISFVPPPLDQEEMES
The next assay addresses T1, TGF-beta receptor type-1 (Homo sapiens, UniProt P36897).
T1 sequence (P36897 whole entry): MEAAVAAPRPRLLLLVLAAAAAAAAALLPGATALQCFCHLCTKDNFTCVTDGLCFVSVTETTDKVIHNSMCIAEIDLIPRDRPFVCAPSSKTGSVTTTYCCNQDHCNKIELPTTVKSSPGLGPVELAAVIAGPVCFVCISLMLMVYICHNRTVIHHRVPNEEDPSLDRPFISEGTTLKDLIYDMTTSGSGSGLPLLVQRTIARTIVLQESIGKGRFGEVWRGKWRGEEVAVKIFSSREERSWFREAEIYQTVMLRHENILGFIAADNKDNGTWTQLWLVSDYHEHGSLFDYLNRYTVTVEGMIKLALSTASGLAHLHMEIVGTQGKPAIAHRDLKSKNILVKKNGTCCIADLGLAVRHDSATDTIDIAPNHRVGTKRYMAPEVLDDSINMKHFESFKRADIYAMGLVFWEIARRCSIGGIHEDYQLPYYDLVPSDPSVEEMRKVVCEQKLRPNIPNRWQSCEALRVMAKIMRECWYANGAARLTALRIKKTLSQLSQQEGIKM
In words: Inhibition of human recombinant GST-fused ALK5 expressed in Sf9 cells.

The target in assay [2] is T2, TGF-beta receptor type-1 (Homo sapiens) (UniProt P36897).
T2 sequence (whole entry): T1 sequence (P36897 whole entry)
The experiment in a line: Inhibition of human recombinant ALK5 activity in human HaCaT cells assessed as inhibition of TGFbeta-induced p3TP-luciferase reporter activity. Type of assay: cell-based. Background: A reporter such as luciferase makes a cellular process visible.

`Cc1cccc(-c2nn(CC(=O)Nc3ccccc3)cc2-c2ccc3ncccc3c2)n1`: the half-inhibitory concentration (IC50) (as a rule, the concentration that inhibits the measured activity by half) in assay [1] is above 1000 nM; on TGF-beta receptor type-1, 207 nM.

Turning to `Cc1cccc(-c2nn(CC(=S)Nc3cccc(C#N)c3)cc2-c2ccc3ncccc3c2)n1`, the values for the IC50 (in assay [1]; at TGF-beta receptor type-1) were above 1000 nM and 51 nM, respectively.

As to `COc1ccnc2ccc(-c3cn(CC(=O)Nc4ccccc4)nc3-c3cccc(C)n3)cc12`, the 50% inhibitory concentration (IC50) (in assay [1]; at TGF-beta receptor type-1) was above 1000 nM in each case.

Regarding `Cc1cccc(-c2c(-c3ccc4ncccc4c3)cnn2CC(=O)Nc2cccc(C#N)c2)n1`, the 50% inhibitory concentration (IC50) (in assay [1]; at TGF-beta receptor type-1) was above 1000 nM each time.

For the molecule `Cc1cccc(-c2nn(CCC(=S)Nc3cccc(C#N)c3)cc2-c2ccc3ncccc3c2)n1`, the figures for the IC50 (in assay [1]; on TGF-beta receptor type-1) were 630 nM and 232 nM, respectively.

`Cc1cccc(-c2nn(CCC(=O)Nc3cccc(C#N)c3)cc2-c2ccc3ncccc3c2)n1`: the concentration for half-maximal inhibition (IC50) in assay [1] was above 1000 nM; at TGF-beta receptor type-1, 101 nM.

As to `Cc1cccc(-c2nn(CCC(=S)Nc3ccccc3)cc2-c2ccc3ncccc3c2)n1`, the results for the concentration for half-maximal inhibition (IC50) (in assay [1]; at TGF-beta receptor type-1) were above 1000 nM and 88 nM, respectively.

Regarding `Cc1cccc(-c2c(-c3ccc4ncccc4c3)cnn2CC(=O)Nc2cccc(C(N)=O)c2)n1`, the IC50 (in assay [1]; at TGF-beta receptor type-1) was above 1000 nM each time.

For the molecule `Cc1cccc(-c2nn(CC(=O)Nc3cccc(C(N)=O)c3)cc2-c2ccc3ncccc3c2)n1`, the figures for the IC50 (in assay [1]; on TGF-beta receptor type-1) were above 1000 nM and 75 nM, respectively.

As for `Cc1cccc(-c2nn(CC(=O)Nc3cccc(C#N)c3)cc2-c2ccc3ncccc3c2)n1`, the inhibition result in assay [2] was “Dose-dependent effect”. Moreover, the results for the IC50 (in assay [1]; at TGF-beta receptor type-1) were above 1000 nM and 22 nM, respectively.

With `COc1ccnc2ccc(-c3cn(CC(=O)Nc4cccc(C#N)c4)nc3-c3cccc(C)n3)cc12`, the IC50 (in assay [1]; at TGF-beta receptor type-1) was above 1000 nM throughout.

In the case of `COc1ccnc2ccc(-c3cnn(CC(=O)Nc4ccccc4)c3-c3cccc(C)n3)cc12`, the IC50 (in assay [1]; at TGF-beta receptor type-1) was above 1000 nM throughout.

For the molecule `Cc1cccc(-c2nn(CC(=S)Nc3ccccc3)cc2-c2ccc3ncccc3c2)n1`, the figures for the half-inhibitory concentration (IC50) (in assay [1]; at TGF-beta receptor type-1) were above 1000 nM and 94 nM, respectively.

`Cc1cccc(-c2[nH]c(Cc3cccc(C(N)=O)c3)nc2-c2ccc3nccnc3c2)n1`: the 50% inhibitory concentration (IC50) in assay [1] was 480 nM; at TGF-beta receptor type-1, 17 nM.

As for `COc1ccnc2ccc(-c3cn(CCC(=O)Nc4cccc(C#N)c4)nc3-c3cccc(C)n3)cc12`, the IC50 (in assay [1]; on TGF-beta receptor type-1) was above 1000 nM in each case.

As for `Cc1cccc(-c2c(-c3ccc4ncccc4c3)cnn2CC(=O)Nc2ccccc2)n1`, the IC50 (in assay [1]; at TGF-beta receptor type-1) was above 1000 nM each time.

Take `Cc1cccc(-c2nn(CCC(=O)Nc3ccccc3)cc2-c2ccc3ncccc3c2)n1`: the IC50 in assay [1] was above 1000 nM; on TGF-beta receptor type-1, 25 nM.

`COc1ccnc2ccc(-c3cnn(CC(=O)Nc4cccc(C#N)c4)c3-c3cccc(C)n3)cc12`: the IC50 (in assay [1]; at TGF-beta receptor type-1) was above 1000 nM in each case.
